According to patent US5405869A, “Anti-tumor platinum complexes” (Istituto Nazionale per la Ricerca sul Cancro, priority 1991, dated 1995):

Legend:
[1] = test system: leukemia cells P388; details: read-out: ID50; P388, incorporation of tritiated thymidine at 48 hours
Description: (§1) The evaluation of the cytotoxic activities of the compounds (1) was carried out "in vitro" measuring, according to known methods, the inhibition of the colony formation, the cell viability (Trypan blu) and the incorporation of tritiated thymidine in tumoral and normal cells.

[2] = test system: leukemia cells K562; details: read-out: ID50; K562, incorporation of tritiated thymidine at 48 hours
Description: as §1

[3] = test system: leukemia cells Jurkat; details: read-out: ID50, incorporation of tritiated thymidine at 48 hours
Description: as §1

cis-diamino-chloro-(4-amino)benzoate-platinum(II) hydrochloride [Compound 1A]
IC50 [1]: 11.4 µM | IC50 [2]: 26.3 µM | IC50 [3]: 21.3 µM
